Measured values as given in patent US4540696A, “1-Piperazinyl 4-phenylquinazoline compounds having antidepressant properties and drugs containing same” (Sanofi S.A., priority 1982, dated 1985).

Columns and labels:
[1] = test system: hypothermia induced by reserpine; experiment: Antagonism of the hypothermia induced by reserpine; format: in vivo, female mice, CDI (Charles Rivers, France); details: reserpine 5 mg/kg i.p., 4 hours
Description: The majority of antidepressants antagonize the hypothermia induced by reserpine. This test was carried out according to the method described by HINO et Coll [Chem Pharm Bull 28 (9), 2618-2622, 1980] on female mice, CDI (Charles Rivers, France) weighing from 18 to 23 g.
(§1) The following protocol was chosen:
The substances to be studied are administered per os to batches of 10 mice, the controls receive the solvent along, simultaneously, the reserpine is administered i.p. at the dose of 5 mg/kg. The temperature of each animal is taken immediately before administration of the products to be tested and 4 hours afterwards. For each animal, the difference in temperature before and after treatment is calculated. The results are expressed in percentage of antagonism of the hypothermia observed in the controls.

[2] = Pharmacological trials on the central nervous system (tests A to E, overall statement); format: in vivo, female mice, CDI (Charles Rivers, France); details: overall statement on Table II
Description: The products according to the invention have been subjected to pharmacological trials with a view to determining their activity on the central nervous system.
The various tests to which the products have been subjected will be indicated hereinbelow. In all cases, the products under study were administered per os.

Toxicity = format: in vivo; details: per os; for Toxicity: in words (atoxic at the stated dose)
[3] = test system: ptosis induced by reserpine; experiment: Antagonism of ptosis induced by reserpine; format: in vivo, female mouse, CDI (Charles Rivers, France); details: reserpine 2 mg/kg intravenous, 1 hour; for ED50: Mus musculus, po, per os, read-out: Antagonism of ptosis induced by reserpine, ED 50
Description: The majority of antidepressants antagonize the ptosis induced by reserpine. This test described by Gouret [Journal de Pharmacologie (Paris), 1973, 4(1), 105-128] was made in the female mouse, CDI (Charles Rivers, France) weighing from 18 to 23 g. The reserpine causes a ptosis 1 hour after its intravenous administration; certain antidepressants, particularly the imipraminics, oppose this ptosis.
The following protocol has been chosen:
The substances to be studied were administered per os to batches of 10 mice. The reserpine was administered simultaneously by the intravenous route at the dose of 2 mg/kg. 1 hour after the administration of reserpine, the number of animals not presenting ptosis is noted.

[4] = test system: tremors induced by oxotremorine; experiment: Antagonism of the tremors induced by oxotremorine; format: in vivo, female mice, CDI (Charles Rivers, France); details: Mus musculus, po, 0.5 h; per os; oxotremorine 1 mg/kg per os at 60 mins., read 30 mins. later; read-out: Antagonism of oxotremorine, ED 50
Description: This test was carried out on female mice, CDI (Charles Rivers, France) weighing from 18 to 23 g.
as §1
The products to be studied are administered at time 0 by the oral route to batches of 10 mice. At time 60 mins., the oxotremorine is administered per os at the dose of 1 mg/kg.

[5] = Porsolt test (despair reaction, reduction in immobilization time); format: in vivo, female mouse, CDI (Charles Rivers, France); details: per os, 1 hour before test
Description: This test was carried out in the female mouse, CDI (Charles Rivers, France) weighing from 18 to 23 g, according to the method described by Porsolt (Archives Internationales de Pharmacologie, 1977, 229, 327-336).
The principle of this test is as follows: when a mouse is placed in a narrow recipient, filled with water, it struggles and then, after 2 to 4 minutes, becomes still and floats on its stomach, its back rounded and its rear paws brought underneath its body; it makes only the few movements to enable it to hold its head out of the water. This is the so-called despair reaction.
Certain psychotherapeutics, particularly antidepressants, lengthen the time during which the mouse struggles.
as §1
The products to be studied were administered orally to batches of 10 mice. 1 hour later, the animals are placed in a narrow receipient (10×10×10 cm), filled with water up to a height of 6 cm, the temperature of the water being 24° C. The animals are left in the water for 6 minutes and the time during which the animal remains immobile between the second and the sixth minute is measured--the shorter the time, the more the substance is active.
The results are expressed as the reduction in the immobilization time with respect to controls.

toxicity of yohimbine = experiment: Potentialization of the toxicity of yohimbine; format: in vivo, female mice, CDI (Charles Rivers, France); details: Mus musculus, po, 18 h, read-out: Potentialization of yohimbine, ED 50
Description: The majority of antidepressants potentialize the toxicity of yohimbine. This test was carried out according to the method described by MALICK (in Antidepressants: Neurochemical Behavioural and Clinical Perspectives, eds S. J. Enna, J. B. Malick, E. Richelson, Raven Press, New York, pages 141-153) on female mice, CDI (Charles Rivers, France).
The substances to be studied are administered per os to batches of 10 mice. The yohimbine is administered i.p. 1 hour later at the dose of 30 mg/kg. Mortality is noted 18 hours later.

[6] = 10 mg/kg, ** p < 0.01 (all but 40 460, which has *)
[7] = at 10 mg/kg per os, ** p < 0.01

Compound	Antagonism of hypothermia induced by reserpine, percentage of antagonism ([1]; at 100 mg/kg per os) [%]	Activity on the tests carried out [2]	Toxicity (Toxicity)	Antagonism of ptosis induced by reserpine, percentage ([3]; at 100 mg/kg per os) [%]	Antagonism of hypothermia induced by reserpine, percentage of antagonism ([1]; at 20 mg/kg per os, ** p < 0.01)	Toxicity: LD 80 (Toxicity) [g/kg]	ED50 [3] [mg/kg]	ED50 [4] [mg/kg]	Porsolt test: reduction in the immobilization time with respect to controls [5, 6] [%]	ED50 (toxicity of yohimbine) [mg/kg]	Antagonism of hypothermia induced by reserpine, percentage of antagonism [1, 7]	Toxicity: LD 40 (Toxicity) [g/kg]	Porsolt test: reduction in the immobilization time with respect to controls ([5]; 5 mg/kg, ** p < 0.01)
OC1CCN(c2nc(-c3ccccc3Cl)c3cc(Cl)ccc3n2)CC1 [40 331, 6-chloro 4-(2-chlorophenyl) 2-(4-hydroxy 1-piperidinyl) quinazoline, reference compound]	-20	virtually inactive	Atoxic at 500 mg/kg	0	–	–	–	–	–	–	–	–	–
CN1CCN(c2nc(-c3ccccc3Cl)c3cc(Cl)ccc3n2)CC1 [40 460]	–	–	–	–	+71%	1	2.1	142	-11	5.4	–	–	–
CN1CCN(c2nc(-c3ccccc3F)c3cc(Cl)ccc3n2)CC1 [40 468]	–	–	Atoxic at 1 g/kg	–	–	–	0.98	50	-61	1.65	+73%	–	–
CN1CCN(c2nc(-c3ccccc3Cl)c3cc([N+](=O)[O-])ccc3n2)CC1 [40 498, 2-(1-methyl 4-piperazinyl) 4-(2-chlorophenyl) 6-nitro quinazoline]	–	–	Atoxic at 1 g/kg	–	–	–	2.8	43.5	-31	7.8	+68%	–	–
Fc1ccccc1-c1nc(N2CCNCC2)nc2ccc(Cl)cc12 [41 125]	–	–	–	–	–	–	0.48	9.5	–	0.74	+81%	1	-46
CCCN1CCN(c2nc(-c3ccccc3F)c3cc(Cl)ccc3n2)CC1 [41 128]	–	–	Atoxic at 1 g/kg	–	–	–	6.2	–	–	1.7	+62%	–	-31
CN(C)CCCN1c2ccccc2CCc2ccccc21 [Imipramine, reference compound]	–	–	–	–	–	–	2.4	12	-30	–	+59%	–	–
